From ChEMBL document CHEMBL3046368, “Synthesis of benzothiazole derivatives and their biological evaluation as anticancer agents” (2012)

Key:
Assay type in all cases: functional
BT-549 = test: Cytotoxicity against Homo sapiens (human) BT549 cells after 48 hr by SRB assay; conditions: BT-549, 48 h
TK-10 = test: Cytotoxicity against Homo sapiens (human) TK10 cells after 48 hr by SRB assay; conditions: TK-10, 48 h
NCI-H322M = test: Cytotoxicity against Homo sapiens (human) NCI-H322M cells after 48 hr by SRB assay
CCRF-CEM = test: Cytotoxicity against Homo sapiens (human) CCRF-CEM cells after 48 hr by SRB assay
SN12C = test: Cytotoxicity against Homo sapiens (human) SN12C cells after 48 hr by SRB assay
HCC 2998 = test: Cytotoxicity against Homo sapiens (human) HCC2998 cells after 48 hr by SRB assay; conditions: HCC 2998, 48 h
Malme-3M = test: Cytotoxicity against Homo sapiens (human) MALME-3M cells after 48 hr by SRB assay
MDA-MB-435 = test: Cytotoxicity against Homo sapiens (human) MDA-MB-435 cells after 48 hr by SRB assay; conditions: MDA-MB-435, 48 h
KM12 = test: Cytotoxicity against Homo sapiens (human) KM12 cells after 48 hr by SRB assay; conditions: KM12, 48 h
HOP-62 = test: Cytotoxicity against Homo sapiens (human) HOP62 cells after 48 hr by SRB assay; conditions: HOP-62, 48 h
A549 = test: Cytotoxicity against Homo sapiens (human) A549 cells after 48 hr by SRB assay; conditions: A549, 48 h
NCI-H23 = test: Cytotoxicity against Homo sapiens (human) NCI-H23 cells after 48 hr by SRB assay; conditions: NCI-H23, 48 h
SF-268 = test: Cytotoxicity against Homo sapiens (human) SF268 cells after 48 hr by SRB assay; conditions: SF-268, 48 h
NCI/ADR-RES = test: Cytotoxicity against Homo sapiens (human) NCI/ADR-RES cells after 48 hr by SRB assay
SK-MEL-5 = test: Cytotoxicity against Homo sapiens (human) SK-MEL-5 cells after 48 hr by SRB assay; conditions: SK-MEL-5, 48 h
HL-60(TB) = test: Cytotoxicity against Homo sapiens (human) HL-60(TB) cells after 48 hr by SRB assay; conditions: HL-60, 48 h
Hs-578T = test: Cytotoxicity against Homo sapiens (human) Hs578T cells after 48 hr by SRB assay
[1] = Cytotoxicity against Homo sapiens (human) colon cancer cells assessed as cell growth at 10^-5 M after 48 hr by SRB assay relative to control; conditions: Cancer cell lines, read-out: Activity
OVCAR-3 = test: Cytotoxicity against Homo sapiens (human) OVCAR3 cells after 48 hr by SRB assay; conditions: OVCAR-3, 48 h
SF-539 = test: Cytotoxicity against Homo sapiens (human) SF539 cells after 48 hr by SRB assay; conditions: SF-539, 48 h
[2] = Cytotoxicity against Homo sapiens (human) CNSC cells assessed as cell growth at 10^-5 M after 48 hr by SRB assay relative to control; conditions: read-out: Activity
[3] = Cytotoxicity against Homo sapiens (human) melanoma cells assessed as cell growth at 10^-5 M after 48 hr by SRB assay relative to control; conditions: read-out: Activity
ACHN = test: Cytotoxicity against Homo sapiens (human) ACHN cells after 48 hr by SRB assay
U-251 = test: Cytotoxicity against Homo sapiens (human) U251 cells after 48 hr by SRB assay; conditions: U-251, 48 h
SK-MEL-2 = test: Cytotoxicity against Homo sapiens (human) SK-MEL-2 cells after 48 hr by SRB assay; conditions: SK-MEL-2, 48 h
NCI-H460 = test: Cytotoxicity against Homo sapiens (human) NCI-H460 cells after 48 hr by SRB assay; conditions: NCI-H460, 48 h
IGROV-1 = test: Cytotoxicity against Homo sapiens (human) IGROV1 cells after 48 hr by SRB assay; conditions: IGROV-1, 48 h
HCT-116 = test: Cytotoxicity against Homo sapiens (human) HCT116 cells after 48 hr by SRB assay; conditions: HCT-116, 48 h
MDA-MB-231 = test: Cytotoxicity against Homo sapiens (human) MDA-MB-231 cells after 48 hr by SRB assay; conditions: MDA-MB-231, 48 h
SW-620 = test: Cytotoxicity against Homo sapiens (human) SW620 cells after 48 hr by SRB assay; conditions: SW-620, 48 h
[4] = Cytotoxicity against Homo sapiens (human) NSCLC cells assessed as cell growth at 10^-5 M after 48 hr by SRB assay relative to control; conditions: read-out: Activity
EKVX = test: Cytotoxicity against Homo sapiens (human) EKVX cells after 48 hr by SRB assay
[5] = Cytotoxicity against Homo sapiens (human) breast cancer cells assessed as cell growth at 10^-5 M after 48 hr by SRB assay relative to control; conditions: Cancer cell lines, read-out: Activity
OVCAR-8 = test: Cytotoxicity against Homo sapiens (human) OVCAR8 cells after 48 hr by SRB assay; conditions: OVCAR-8, 48 h
[6] = Cytotoxicity against Homo sapiens (human) prostate cancer cells assessed as cell growth at 10^-5 M after 48 hr by SRB assay relative to control; conditions: Cancer cell lines, read-out: Activity
NCI-H522 = test: Cytotoxicity against Homo sapiens (human) NCI-H522 cells after 48 hr by SRB assay; conditions: NCI-H522, 48 h
K562 = test: Cytotoxicity against Homo sapiens (human) K562 cells after 48 hr by SRB assay; conditions: K562, 48 h
OVCAR-4 = test: Cytotoxicity against Homo sapiens (human) OVCAR4 cells after 48 hr by SRB assay; conditions: OVCAR-4, 48 h
PC-3 = test: Cytotoxicity against Homo sapiens (human) PC3 cells after 48 hr by SRB assay; conditions: PC-3, 48 h
UO-31 = test: Cytotoxicity against Homo sapiens (human) UO31 cells after 48 hr by SRB assay; conditions: UO-31, 48 h

Structure (SMILES)	GI50 (BT-549) [nM]	GI50 (TK-10) [nM]	GI50 (NCI-H322M) [nM]	GI50 (CCRF-CEM) [nM]	GI50 (SN12C) [nM]	GI50 (HCC 2998) [nM]	GI50 (Malme-3M) [nM]	GI50 (MDA-MB-435) [nM]	GI50 (KM12) [nM]	GI50 (HOP-62) [nM]	GI50 (A549) [nM]	GI50 (NCI-H23) [nM]	GI50 (SF-268) [nM]	GI50 (NCI/ADR-RES) [nM]	GI50 (SK-MEL-5) [nM]	GI50 (HL-60(TB)) [nM]	GI50 (Hs-578T) [nM]	growth at 10 µM [1] [%]	GI50 (OVCAR-3) [nM]	GI50 (SF-539) [nM]	also measured
N#Cc1ccc(NC(=O)Nc2nc3ccc(OC(F)(F)F)cc3s2)cc1	2750	1230	2400	1510	1580	1290	851	1410	1020	2510	1200	575	3090	1550	1150	2450	1780	-11.2	575	2880	growth at 10 µM [2]: 2.6%; growth at 10 µM [3]: -9.77%; GI50 (ACHN): 724 nM; GI50 (U-251): 1410 nM; GI50 (SK-MEL-2): 1780 nM; GI50 (NCI-H460): 603 nM; GI50 (IGROV-1): 2000 nM; GI50 (HCT-116): 550 nM; GI50 (MDA-MB-231): 933 nM; GI50 (SW-620): 1620 nM; growth at 10 µM [4]: -6.18%; GI50 (EKVX): 1350 nM; growth at 10 µM [5]: -5.18%; GI50 (OVCAR-8): 2000 nM; growth at 10 µM [6]: 13%; GI50 (NCI-H522): 427 nM; GI50 (K562): 537 nM; GI50 (OVCAR-4): 1620 nM; GI50 (PC-3): 1350 nM; GI50 (UO-31): 1660 nM
O=C(Nc1ccc(F)cc1)Nc1nc2ccc(OC(F)(F)F)cc2s1	3800	4070	4470	3980	2570	3890	2950	2950	2690	3800	3470	2880	3720	3390	2450	3020	3090	0.24	2240	2240	growth at 10 µM [2]: 21.1%; growth at 10 µM [3]: 12%; GI50 (ACHN): 2400 nM; GI50 (U-251): 3980 nM; GI50 (SK-MEL-2): 3090 nM; GI50 (NCI-H460): 3020 nM; GI50 (IGROV-1): 3890 nM; GI50 (HCT-116): 2950 nM; GI50 (MDA-MB-231): 3310 nM; GI50 (SW-620): 3720 nM; growth at 10 µM [4]: 5.63%; GI50 (EKVX): 2630 nM; growth at 10 µM [5]: 19.2%; GI50 (OVCAR-8): 4270 nM; growth at 10 µM [6]: 12.4%; GI50 (NCI-H522): 3160 nM; GI50 (K562): 3550 nM; GI50 (OVCAR-4): 2950 nM; GI50 (PC-3): 2820 nM; GI50 (UO-31): 3470 nM
